Source: article PMC11539218 (Antimicrobial Agents and Chemotherapy, 2024)

What was measured:
[1] = tested on: L. (L.) infantum promastigotes; test: Acidocalcisomes alkalinization (acridine orange); type: cell-based, Leishmania (L.) infantum; conditions: compound 1 169.2 µM, nigericin 4 µM; after 20 min; vs untreated
Method: Promastigotes (2 × 10^6/well) were pretreated with acridine orange (4 µM) in PBS, for 5 min at 24°C. The parasites were treated with compound 1 (169.2 µM). Fluorescence was monitored every 20 min up to 4 h in a spectrofluorometer, with excitation and emission wavelengths of 485 and 535 nm, respectively ([22]). Nigericin (4 µM) was employed as positive control and untreated parasites as negative control ([23]).

[2] = tested on: L. (L.) infantum promastigotes; test: Ultrastructural studies (transmission electron microscopy); type: cell-based, Leishmania (L.) infantum; conditions: 169.2 µM, TEM
Method: Promastigotes (3 × 10^7 parasites/well) were treated with compound 1 (169.2 µM) for 2, 4, and 6 h at 24°C. Subsequently, parasites were fixed in glutaraldehyde solution (2.5% wt/vol) and post-fixed in osmium tetroxide (1% wt/vol). The samples were gradually dehydrated in acetone and embedded in Epon 812 resin. Ultrathin sections were stained with uranyl acetate and lead citrate ([27]). The material was analyzed under a transmission electron microscope (JEOL JEM-1011). Untreated parasites were employed as a negative control.

[3] = tested on: amastigotes of L. (L.) infantum; conditions: cited from earlier work
[4] = tested on: Peritoneal macrophages infected with L. (L.) infantum amastigotes; test: Nitric oxide in infected macrophages (Griess reagent); type: cell-based, BALB/c mice; conditions: compound 1 7.5 to 60 µM, LPS 25 µg/mL; 48 h; vs untreated
Method: L. (L.) infantum (MHOM/BR/1972/LD) promastigotes were maintained in M199 medium supplemented with 10% FBS and 0.25% hemin, pH 7.2 at 24°C. Amastigotes were isolated from golden hamsters (M. auratus) by differential centrifugation of infected spleens and the parasite’s number was determined according to Stauber ([14]). Peritoneal macrophages were obtained from the peritoneal cavity of BALB/c mice and maintained in RPMI-1640 medium supplemented with 10% FBS, pH 7.2 at 37°C.
Peritoneal macrophages (5 × 10^5/well) were infected with L. (L.) infantum amastigotes (10:1 amastigotes/macrophage) for 24 h, at 37°C with 5% CO2. Later, the cells were treated with compound 1 serially diluted (7.5 to 60 µM), under the same conditions described above. After 48 h, the supernatants were collected and incubated with Griess reagent ([28]). […] LPS (25 µg/mL) was employed as the positive control and untreated cells as the negative control ([29]).

[5] = In vivo pharmacokinetic study, intraperitoneal; parameters: species or system Wistar rats; conditions: 5 mg/kg intraperitoneal; for half-life: 5 mg/kg
Method: The detection and quantification of compound 1 in the blood matrices were performed after sample processing, using a liquid-liquid extraction methodology. First, 100 µL of plasma was enriched with 10 µL of PI (0.8 µg/mL). Subsequently, 500 µL of hexane was added and the mixture was vortexed for 1 min and centrifuged at 22,082 × g for 5 min. The organic phase was collected in glass tubes and the aqueous phase was subjected to the liquid-liquid extraction procedure again. In the end, the combined organic samples were completely evaporated at 60°C under nitrogen flow and reconstituted in 100 µL of 40:60 ACN:H2O + 0.1% orthophosphoric acid (pH 2.08). Finally, the extracts were centrifuged at 22,082 × g for 2 min and injected into the chromatographic system. Chromatographic analyses by HPLC were performed using a C18 column (Purospher Star LiChroCART, 55 × 4 mm, 3 µm) with gradient elution (Table 1).
Compound 1 (5 mg/kg) was administered (10 mL/kg in saline-sodium-chloride-0.9%) by intraperitoneal route, to six Wistar rats. Blood samples were collected from the caudal vein at 30 min, 1, 2, 3, 5, 6, 8, 12, and 24 h post-dosing. Plasma samples were prepared as described in the previous section and analyzed by HPLC. Concentrations below the LLOQ were considered as zero. Pharmacokinetic profile was obtained using the WinNonlin 6.4 software, determining different parameters, including half-life time (T½); maximum time (Tmax); maximum plasma concentration (Cmax); area under the curve from time zero to the last measurable concentration time (AUC0-t); area under the curve from zero to infinity (AUC0-inf); percentage of area under the curve extrapolated from the last measurable concentration time to infinity (AUCextrap); and meantime of residence (MRT).

[6] = tested on: L. (L.) infantum promastigotes; test: Plasma membrane permeability (Sytox Green); type: cell-based, Leishmania (L.) infantum; conditions: compound 1 169.2 µM, Triton X-100 0.5%, up to 4 h
Method: Promastigotes (2 × 10^6/well) were pretreated with Sytox Green (1 µM) for 15 min, at 24°C. Then, compound 1 (169.2 µM) was added and the fluorescence was monitored every 20 min up to 4 h in a spectrofluorometer, with excitation and emission wavelengths of 485 and 535 nm, respectively ([17]). Triton X-100 (0.5% vol/vol) was employed as positive control and untreated parasites as negative control ([18]).

[7] = tested on: Erythrocytes collected from BALB/c mice; test: Hemolytic activity; type: cell-based; conditions: 6.25 to 200 µM, 2 h
Method: Erythrocytes collected from BALB/c mice were added to a U-shaped bottom 96-wells microplate at 3% (vol/vol) in phosphate-buffered saline (PBS), treated with compound 1 serially diluted ([…] to 200 µM) in PBS and incubated for 2 h at 24°C. To determine the hemolytic activity, cell supernatants were collected and analyzed in a spectrophotometer (570 nm) ([15]). Bidistilled water was employed as a positive control and untreated erythrocytes as a negative control.

[8] = Wistar, rat, plasma, ip, female rats
[9] = Wistar, rat, plasma, ip, male rats
[10] = both sexes, rat, plasma, ip, single dose, Wistar rats, males + females (mean ± SD)

## C=CCc1cc(OC)c(OCc2ccc(OC)cc2)c(Oc2ccc(CN3CCOCC3)cc2OC)c1 [compound 1, 4-(4-(5-allyl-3-methoxy-2-((4-methoxybenzyl)oxy)phenoxy)-3-methoxybenzyl)morpholine]
[1]
  acridine orange fluorescence levels (acidocalcisomes): significantly higher
[2]; 2 h
  ultrastructural alterations: increased volume of the mitochondria
[2]; all studied times (2, 4, 6 h)
  ultrastructural alterations: autophagic vacuoles were observed in the cytoplasm
[2]; later times of incubation (4 h, 6 h)
  ultrastructural alterations: losses of mitochondrial cristae
[3]; intracellular amastigotes, 24 h incubation, read-out: IC50 against amastigotes of L. (L.) infantum
  IC50: 9.7 µM
[3]; selectivity index
  SI: > 20
[4]
  NO levels: remained similar
[5]; single dose, Wistar rats, males + females (mean ± SD)
  T1/2: 21.08 ± 17.72 h
[5]; [8]
  AUC(0-t): 980 ng·h/mL
  Cmax: 200 ng/mL
  MRT: 12.8 h
  Tmax: 0.5 h
[5]; [9]
  AUC(0-t): 650 ng·h/mL
  Cmax: 100 ng/mL
  MRT: 41.1 h
  Tmax: 1.5 h
[5]; both sexes, Wistar, rat, plasma, ip, single dose, Wistar rats, males + females (mean ± SD)
  half-life: 21 h
[5]; [10]
  AUC(0-inf): 1270 ± 340 ng·h/mL
  AUC(0-t): 810 ± 300 ng·h/mL
  Cmax: 150 ± 80 ng/mL
  MRT: 26.9 ± 23.2 h
  Tmax: 1 ± 1.22 h
[5]; female, Wistar, rat, plasma, ip, female rats
  half-life: 10.7 h
[5]; male, Wistar, rat, plasma, ip, male rats
  half-life: 31.4 h
[6]
  plasma membrane permeability: no alteration
[7]
  hemolysis: no hemolysis
